Earlier results in patent publication US20090202672A1, “AQUACULTURE FEED, PRODUCTS, AND METHODS COMPRISING BENEFICIAL FATTY ACIDS” (Monsanto Company, priority 2008, published 2009).

Experiments:
[1] = system: cell line from turbot, Scopthalmus maximus; conditions: Ghioni et al 1999
[2] = system: established cell line from Atlantic salmon, Salmo salar; conditions: Ghioni et al 2004

Conversion of SDA to EPA [1]: limited conversion of SDA to EPA
Bioconversion of SDA to EPA and DHA [2]: bioconversion of SDA to EPA, but not DHA
SMILES: CC/C=C\C/C=C\C/C=C\C/C=C\CCCCC(=O)O [SDA, stearidonic acid]
